# Measured values reported in US20250034136A1 (Nimbus Wadjet, Inc., priority 2023, published 2025).
# Experiments:
# [1] = target: WRN (BV08), human Werner helicase (Uniprot Q14191, amino acids 517-1235 with L1074F point mutation) (Homo sapiens (Human), UniProt Q14191, L1074F); test: WRN (BV08) ADP-Glo assay; type: biochemical; conditions: class symbols A-E, read-out: ADP-Glo_hWRN_IC50
# Description: Bovine skin gelatin (BSG), dimethyl sulfoxide (DMSO), Pluronic F-127 and tris(2-carboxyethyl)phosphine hydrochloride solution (TCEP) were purchased from Sigma-Aldrich (St. Louis, MO) at the highest level of purity possible. […] DNA strands were annealed by heating to 95° C. for 5 minutes followed by slow cooling to room temperature. Compounds in 100% DMSO (0.1 μl) were spotted into a 384-well white polystyrene Optiplate-384 (Perkin Elmer; Waltham, MA) assay plate using a LabCyte Echo 550 (Agilent; Santa Clara, CA). DMSO (0.1 μl) was added to columns 12, rows A-H and column 24, rows I-P for the maximum signal control. […] Compounds/DMSO were preincubated for 15 minutes at 25° C. with 5 μl 2×WRN (BV08), prepared as described below, in assay buffer containing 20 mM Bicine (pH=7.5), 1 mM MgCl2, 10 mM KCl, 0.1% Pluronic F-127, 0.005% BSG, 1 mM TCEP. The reaction was initiated by the addition of 5 μl 2× substrate mixture in assay buffer and incubated for 60 minutes at 25° C. The final concentrations of the assay components were 0.15 nM WRN, 5 μM ATP, and 0.1 nM DNA duplex. The final DMSO concentration was 1% and the reference compound concentration (NSC-617145) used for the minimal signal control was 20 μM. The reaction was stopped by the addition of the ADP-Glo Kit components (Promega; Madison, WI) as directed and the relative luminescence units (RLU) were read on an Envision 2104 (Perkin Elmer; Waltham, MA). % inhibition calculation:
# [formula] • Where RLU=relative luminescence units, sample=signal in sample well, and MIN and MAX are the respective minimum and maximum signal controls.
# [formula] • Where top and bottom are normally allowed to float but may be fixed at 100 or 0 respectively in a 3-parameter fit. Y is the % inhibition and X is the compound concentration.
# Molecular Biology and virus production. […] The baculovirus from the expression plasmid WRN—BV08 was generated from transfection and amplification following the manufacturer's instructions.
# Sf9 cells grown in SF900II media were infected with 1:200 WRN—BV08 P2 virus and incubated for protein expression for 72 h at 27° C. The WRN protein was purified using the following protocol. The cell pellets were thawed and resuspended in buffer A (50 mM Tris, pH 7.5, 500 mM NaCl, 1 mM TCEP, 10% Glycerol) supplemented with 0.5% CHAPS, 1 mM PMSF, 1 μg/ml Leupeptin, 1 μg/ml Pepstatin, and the Pierce Universal Nuclease and cocktail tablet. Cleared lysates were loaded onto a Ni Sepharose™ excel column and washed with buffer A and bound protein was eluted with buffer A supplemented with 300 mM imidazole. The eluted protein was dialyzed against buffer A and digested by His-tagged TEV (1:5 ratio) overnight at 4° C. ZnCl2 was added into the sample at final 15 μM before loading onto a second Ni Sepharose™ excel column. Untagged WRN protein was eluted from the column with buffer A supplemented with 20 mM imidazole, dialyzed overnight into buffer B (50 mM Tris, pH 7.5, 1 mM TCEP, 10% Glycerol) supplemented with 150 mM NaCl and loaded onto a Heparin column. Proteins were eluted with a step gradient of buffer B supplemented with 150 mM, 200 mM, 300 mM and 500 mM NaCl. WRN containing fractions were pooled and concentrated prior to loading on to size exclusion chromatography using a HiLoad 16/600 Superdex™ 200 pg column (GE Healthcare) in buffer C (20 mM HTEPES, pH 7.5, 250 mM NaCl, 0.25 mM TCEP, […]).
# [2] = system: p21 induction in HCT116 cells; test: p21 induction in HCT116 cells; type: cell-based; conditions: Homo sapiens, HCT-116, 24 h, HCT116 cells, 24 h compound incubation; read-out: P21_EC50
# Description: The colon carcinoma cell line HCT116 was obtained from ATCC and cultured in growth medium consisting of Mccoy's 5A Medium (Gibco 16600108) supplemented with 10% FBS (Transgene FS201-02) and 100 units/mL penicillin-streptomycin (Gibco 15140122) and maintained at 37° C. under 5% CO2. On the day of seeding, 2,000 cells in 30 μL of culture media were plated per well to Poly-D-Lysine 384 Well Black Clear Plates (Biocoat 356663) and incubated overnight at 37° C. under 5% CO2. The following day, compounds were serially diluted in DMSO for a total of 11 test concentrations. […] Next, 150 nL of diluted compound was added in duplicate to the assay plate, using an Echo 655 (Labcyte). The plate was centrifuged at 500 RPM for 1 min and then incubated at 37° C. under 5% CO2 for 24 h. After 24 h, medium was removed, and cells were fixed by adding 40 μL of 4% paraformaldehyde solution to each well and incubated for 20 min at room temperature. The plate was then washed 4 times with 100 μL per well of wash buffer (PBS with 0.1% Tween-20) using a microplate washer. Next, 30 μL of ice-cold methanol was added to each well and the plate was incubated at −20° C. for 10 min. The plate was washed 4 times with 100 μL per well of wash buffer by a microplate washer, then 30 μL per well of blocking buffer (Intercept PBS blocking buffer (LI-COR 927-70001) with 0.05% Tween-20) was added and the plate was incubated at room temperature with shaking for 2 h. Next, to each test well, 20 μL of primary antibody solution (p21 Waf1/CIP (12D1) RabbitmAb (Cell Signaling Technologies 2947) diluted 1:1000 and GAPDH (D4C6R) Mouse mAb (Cell Signaling Technologies 97166) diluted 1:2000 in blocking buffer) was added and the plate was placed at 4° C., overnight. The following day, the plate was washed 5 times with 100 μL per well of wash buffer using a microplate washer for 5 min. 20 μL per well of secondary antibody (IRDye 680CW Goat anti-Mouse IgG (H+L) (LI-COR 926-68070) diluted 1: 2000 in Blocking Buffer and IRDye 800CW Goat anti-Rabbit IgG (H+L) (LI-COR 926-32211) diluted 1: 2000 in Blocking Buffer) was then added and the plate was stored for 2 h in the dark at room temperature with shaking. The plate was then washed 4 times with 100 μL per well of wash buffer again using a microplate washer. Finally, the p21 signal and the GAPDH signal were quantified using a LI-COR Odyssey CLx Imager machine reading at 800 nm and 700 nm, respectively. Each plate contained DMSO control (low control) and an internal reference WRN inhibitor (high control) respectively. […] EC50 values for each compound were generated after non-linear regression curve fitting using commercially available software.
# WRN (BV08), human Werner helicase (Uniprot Q14191, amino acids 517-1235 with L1074F point mutation), sequence (Q14191 other isoform, or with tags, fused parts or gaps L1074F (already in the parent)): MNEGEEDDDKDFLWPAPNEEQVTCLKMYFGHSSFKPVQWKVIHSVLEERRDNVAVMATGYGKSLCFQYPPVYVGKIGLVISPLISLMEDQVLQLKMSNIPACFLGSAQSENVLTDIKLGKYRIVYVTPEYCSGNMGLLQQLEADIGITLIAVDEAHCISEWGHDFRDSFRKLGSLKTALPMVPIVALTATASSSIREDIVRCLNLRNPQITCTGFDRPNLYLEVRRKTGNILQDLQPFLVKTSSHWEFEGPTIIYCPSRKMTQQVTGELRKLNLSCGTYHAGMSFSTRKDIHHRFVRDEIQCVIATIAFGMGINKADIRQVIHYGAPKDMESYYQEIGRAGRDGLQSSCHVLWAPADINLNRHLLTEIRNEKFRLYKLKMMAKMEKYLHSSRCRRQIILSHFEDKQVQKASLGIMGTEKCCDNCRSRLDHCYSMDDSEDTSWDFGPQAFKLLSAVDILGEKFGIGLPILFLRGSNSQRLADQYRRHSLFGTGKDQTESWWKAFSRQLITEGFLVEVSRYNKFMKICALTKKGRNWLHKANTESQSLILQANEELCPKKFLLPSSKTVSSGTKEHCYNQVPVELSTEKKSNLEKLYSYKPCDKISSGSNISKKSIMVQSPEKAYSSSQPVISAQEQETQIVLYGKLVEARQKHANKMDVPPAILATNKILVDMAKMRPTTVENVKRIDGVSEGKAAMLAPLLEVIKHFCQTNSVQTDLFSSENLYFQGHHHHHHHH
Structure (SMILES),IC50 [1] [nM],EC50 [2] [nM]
"CCc1c(N2CCN(C(=O)c3ncnc(C)c3O)CC2)c(=O)c2nc(N3CC[C@@H](O)C3)cnc2n1CC(=O)Nc1ccc(C(F)(F)F)cc1Cl [I-56, (R)-N-(2-chloro-4-(trifluoromethyl)phenyl)-2-(6-ethyl-7-(4-(5-hydroxy-6-methylpyrimidine-4-carbonyl)piperazin-1-yl)-2-(3-hydroxypyrrolidin-1-yl)-8-oxopyrido[2,3-b]pyrazin-5(8H)-yl)acetamide]",5 to 50,> 5000
"CCc1c(N2CCCN(C(=O)c3ncnc(C)c3O)CC2)c(=O)c2nc(N(C)C)cnc2n1CC(=O)Nc1ccc(C(F)(F)F)cc1Cl [I-147, N-[2-chloro-4-(trifluoromethyl)phenyl]-2-[2-(dimethylamino)-6-ethyl-7-[4-(5-hydroxy-6-methylpyrimidine-4-carbonyl)-1,4-diazepan-1-yl]-8-oxo-5H,8H-pyrido[2,3-b]pyrazin-5-yl]acetamide]",5 to 50,> 5000
"CCc1c(N2CCN(C(=O)c3ncnc(C)c3O)[C@H]3CC[C@@H]32)c(=O)c2cc(N(C)C)cnc2n1CC(=O)Nc1ccc(C(F)(F)F)cc1Cl [I-124, N-[2-chloro-4-(trifluoromethyl)phenyl]-2-[6-(dimethylamino)-2-ethyl-3-[(1S,6S)-5-(5-hydroxy-6-methylpyrimidine-4-carbonyl)-2,5-diazabicyclo[4.2.0]octan-2-yl]-4-oxo-1,4-dihydro-1,8-naphthyridin-1-yl]acetamide]",5 to 50,< 500
"CCc1c(N2CCN(C(=O)c3ncnc(C)c3O)CC2)c(=O)c2nc(N3CC(F)C3)cnc2n1CC(=O)Nc1ccc(C(F)(F)F)cc1Cl [I-164, N-[2-chloro-4-(trifluoromethyl)phenyl]-2-[6-ethyl-2-(3-fluoroazetidin-1-yl)-7-[4-(5-hydroxy-6-methylpyrimidine-4-carbonyl)piperazin-1-yl]-8-oxo-5H,8H-pyrido[2,3-b]pyrazin-5-yl]acetamide]",5 to 50,2000 to 5000
"CCc1c(N2CCN(C(=O)c3ncnc(C)c3O)CC2)c(=O)c2nc(OC)c(C)nc2n1CC(=O)Nc1ccc(C(F)(F)F)cc1Cl [I-12, N-(2-chloro-4-(trifluoromethyl)phenyl)-2-(6-ethyl-7-(4-(5-hydroxy-6-methylpyrimidine-4-carbonyl)piperazin-1-yl)-2-methoxy-3-methyl-8-oxopyrido[2,3-b]pyrazin-5(8H)-yl)acetamide]",5 to 50,> 5000
"CCc1c(N2CCN(C(=O)c3ncnc(C)c3O)[C@@H](C)[C@H]2C)c(=O)c2nc(N(C)C)cnc2n1CC(=O)Nc1ccc(C(F)(F)F)cc1Cl (single isomer, unassigned) [I-196, N-(2-chloro-4-(trifluoromethyl)phenyl)-2-(2-(dimethylamino)-6-ethyl-7-(4-(5-hydroxy-6-methylpyrimidine-4-carbonyl)-2,3-dimethylpiperazin-1-yl)-8-oxopyrido[2,3-b]pyrazin-5(8H)-yl)acetamide]",5 to 50,500 to 2000
"CCc1c(N2CCN(C(=O)c3ncnc(C)c3O)CC2)c(=O)c2nc(N(C)CCOC)cnc2n1CC(=O)Nc1ccc(C(F)(F)F)cc1Cl [I-72, N-(2-chloro-4-(trifluoromethyl)phenyl)-2-(6-ethyl-7-(4-(5-hydroxy-6-methylpyrimidine-4-carbonyl)piperazin-1-yl)-2-((2-methoxyethyl)(methyl)amino)-8-oxopyrido[2,3-b]pyrazin-5(8H)-yl)acetamide]",5 to 50,> 5000
"CCc1c(N2CCN(C(=O)c3ncnc(C)c3O)CC2)c(=O)c2nc(N3CCOCC3)cnc2n1CC(=O)Nc1ccc(C(F)(F)F)cc1Cl [I-52, N-(2-chloro-4-(trifluoromethyl)phenyl)-2-(6-ethyl-7-(4-(5-hydroxy-6-methylpyrimidine-4-carbonyl)piperazin-1-yl)-2-morpholino-8-oxopyrido[2,3-b]pyrazin-5(8H)-yl)acetamide]",5 to 50,> 5000
"CCc1c(N2CCN(C(=O)c3ncnc(C)c3O)CC2)c(=O)c2nc(/C=C3/CCOC3)cnc2n1CC(=O)Nc1ccc(C(F)(F)F)cc1Cl [I-35, N-(2-chloro-4-(trifluoromethyl)phenyl)-2-(2-((dihydrofuran-3(2H)-ylidene)methyl)-6-ethyl-7-(4-(5-hydroxy-6-methylpyrimidine-4-carbonyl)piperazin-1-yl)-8-oxopyrido[2,3-b]pyrazin-5(8H)-yl)acetamide]",5 to 50,2000 to 5000
"CCOc1ncc(C)c(O)c1C(=O)N1CCN(c2c(CC)n(CC(=O)Nc3ccc(C(F)(F)F)cc3Cl)c3ncc(N(C)C)nc3c2=O)[C@H]2CC[C@@H]21 [I-275, N-[2-chloro-4-(trifluoromethyl)phenyl]-2-[2-(dimethylamino)-7-[(1S,6S)-5-(2-ethoxy-4-hydroxy-5-methylpyridine-3-carbonyl)-2,5-diazabicyclo[4.2.0]octan-2-yl]-6-ethyl-8-oxo-5H,8H-pyrido[2,3-b]pyrazin-5-yl]acetamide]",5 to 50,< 500
"CCc1c(N2CCN(C(=O)c3ncnc(C)c3O)CC2)c(=O)c2nc(N3CCC[C@H]3C(C)(C)O)cnc2n1CC(=O)Nc1ccc(C(F)(F)F)cc1Cl [I-153, N-[2-chloro-4-(trifluoromethyl)phenyl]-2-{6-ethyl-7-[4-(5-hydroxy-6-methylpyrimidine-4-carbonyl)piperazin-1-yl]-2-[(2S)-2-(2-hydroxypropan-2-yl)pyrrolidin-1-yl]-8-oxo-5H,8H-pyrido[2,3-b]pyrazin-5-yl}acetamide]",5 to 50,2000 to 5000
